In patent publication US9504675B2, “Alpha-ketoheterocycles and methods of making and using” (The Scripps Research Institute, priority 2011, dated 2016):
pKi: −log10 of the molar value. “Also recorded” adds a separate entry of the source.

Columns and labels:
human FAAH (hFAAH) = target: T1, human FAAH (hFAAH) (Homo sapiens, UniProt O00519); assay: Enzyme assay: inhibition of human FAAH (lysate of hFAAH-transfected COS-7 cells), 14C-oleamide hydrolysis; type: biochemical
T1 construct: The full-length human FAAH (hFAAH) was expressed in COS-7 cells; expressed in transfected cells; host or cells: COS-7 (transiently transfected with human FAAH cDNA)
T1 sequence (O00519 1-579): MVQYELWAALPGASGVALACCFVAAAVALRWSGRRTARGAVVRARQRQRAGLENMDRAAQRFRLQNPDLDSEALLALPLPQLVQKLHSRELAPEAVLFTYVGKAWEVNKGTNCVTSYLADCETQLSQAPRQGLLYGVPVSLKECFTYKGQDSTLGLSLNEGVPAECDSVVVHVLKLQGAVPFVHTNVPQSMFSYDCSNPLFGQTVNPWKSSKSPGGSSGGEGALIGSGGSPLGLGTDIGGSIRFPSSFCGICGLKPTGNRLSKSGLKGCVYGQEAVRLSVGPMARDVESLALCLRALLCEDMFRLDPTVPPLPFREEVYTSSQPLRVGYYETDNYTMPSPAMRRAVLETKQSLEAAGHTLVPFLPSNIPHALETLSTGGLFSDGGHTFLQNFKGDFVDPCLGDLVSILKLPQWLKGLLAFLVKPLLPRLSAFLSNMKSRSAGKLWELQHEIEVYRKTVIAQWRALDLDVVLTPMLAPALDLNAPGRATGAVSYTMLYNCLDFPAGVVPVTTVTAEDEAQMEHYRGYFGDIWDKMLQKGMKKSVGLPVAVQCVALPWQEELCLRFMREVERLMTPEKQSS
Procedure: Enzyme assays were performed at 20-23° C. with purified recombinant rat FAAH expressed in Escherichia coli or with solubilized COS-7 membrane extracts from cells transiently transfected with human FAAH cDNA (where specifically indicated) in a buffer of 125 mM Tris/1 mM EDTA/0.2% glycerol/0.02% Triton X-100/0.4 mM Hepes, pH 9.0.
^14C-labeled oleamide was prepared from ^14C-labeled oleic acid. The truncated rat FAAH (rFAAH) was expressed in E. coli and purified. The purified recombinant rFAAH was used in the inhibition assays unless otherwise indicated. The full-length human FAAH (hFAAH) was expressed in COS-7 cells as described, and the lysate of hFAAH-transfected COS-7 cells was used in the inhibition assays where explicitly indicated.
The inhibition assays were performed as follows. […] The enzyme reaction was terminated by transferring 20 μL of the reaction mixture to 500 μL of 0.1 N HCl at three different time points. The ^14C-labeled oleamide (substrate) and oleic acid (product) were extracted with EtOAc and analyzed by TLC as detailed. The Ki of the inhibitor was calculated using a Dixon plot as described (standard deviations are provided in the Supporting Information tables).

[1] = target: T2, recombinant rat FAAH (rFAAH) (Rattus norvegicus, UniProt P97612); assay: Enzyme assay: inhibition of purified recombinant rat FAAH, 14C-oleamide hydrolysis, Ki by Dixon plot; type: biochemical
T2 construct: The truncated rat FAAH (rFAAH) was expressed in E. coli and purified; made in house; host or cells: Escherichia coli
T2 sequence (P97612 30-579 limits assumed): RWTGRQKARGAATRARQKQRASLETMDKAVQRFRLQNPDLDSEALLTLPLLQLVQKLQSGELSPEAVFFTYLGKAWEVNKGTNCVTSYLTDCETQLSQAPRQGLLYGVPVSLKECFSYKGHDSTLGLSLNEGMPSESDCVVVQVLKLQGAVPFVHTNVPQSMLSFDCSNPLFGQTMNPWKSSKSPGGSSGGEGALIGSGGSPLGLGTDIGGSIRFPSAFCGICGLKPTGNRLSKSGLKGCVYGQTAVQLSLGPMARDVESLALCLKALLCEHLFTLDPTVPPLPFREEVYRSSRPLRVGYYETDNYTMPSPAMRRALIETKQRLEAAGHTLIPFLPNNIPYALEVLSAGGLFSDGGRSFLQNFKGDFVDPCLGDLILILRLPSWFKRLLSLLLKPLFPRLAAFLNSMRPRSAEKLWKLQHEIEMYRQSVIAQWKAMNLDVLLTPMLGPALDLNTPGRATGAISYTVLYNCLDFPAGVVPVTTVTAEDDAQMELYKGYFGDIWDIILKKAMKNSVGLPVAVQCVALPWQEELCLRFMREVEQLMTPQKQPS
Outline: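 Hydrolysis of 14C-oleamide at 20-23° C by purified truncated rat FAAH expressed in E. coli or by lysate of COS-7 cells transfected with full-length human FAAH, in 125 mM Tris/1 mM EDTA/0.2% glycerol/0.02% Triton X-100/0.4 mM Hepes, pH 9.0. Reaction stopped in 0.1 N HCl at three time points; substrate and product separated by TLC; Ki from Dixon plot.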

[2] = test system: catalepsy, hypothermia, hypomotility (THC-like effects); assay: Cannabimimetic side effects after oral administration; type: in vivo; conditions: oral administration 50 mg/kg
[3] = test system: mice with CCI neuropathic pain; assay: Chronic constriction injury (CCI) of the sciatic nerve: mechanical (von Frey) and cold (acetone) allodynia; type: in vivo, mouse (C57BL/6); conditions: 50 mg/kg p.o.
Procedure: Surgery was performed as follows. Briefly, the right hind leg of male C57BL/6 mice was shaved and swabbed with betadine solution and ethanol. Posterior to the femur, an incision was made and the sciatic nerve was visualized and isolated, following muscle separation. The nerve was ligated twice with 5-0 (1.0 metric) black silk braided suture (Surgical Specialties Corporation, Reading, Pa.). The surrounding muscle and skin were then sutured with 6-0 nylon. Mice were recovered in a heated cage and observed for approximately 2 h before being returned to the vivarium.
Allodynia was initially tested 10 days after surgery. Male C57BL/6 mice were habituated to the test apparatus for 2 h on the 2 days prior to testing. On the test day, the mice were brought into the test room, weighed, and allowed to acclimate for at least 1 h before the start of the experiment. […] Mechanical (von Frey) and cold (acetone-induced) allodynia were tested at 1, 3, 6, and 9 h post drug administration. Testing was carried out by a separate observer who was blinded to treatment conditions. Mechanical allodynia was assessed with von Frey filaments (North Coast Medical, Morgan Hill, Calif.), using the “up-down” method. Each hind paw was stimulated 5 times per filament (0.16-6.0 g), starting with the 0.6 g filament and increasing weight. Paw clutching or lifting, in response to three or more stimulations, was coded as a positive response. Once a positive response was detected, sequentially lighter-weight filaments were used to assess paw withdrawal threshold. Approximately 30 min after completing the von Frey test, cold allodynia was tested by propelling 10 μL of acetone (Fisher Bioscience) via air burst, from a 200 μL pipette (Rainin Instruments, Oakland, Calif.) onto the plantar surface of each hind paw. Total time lifting or clutching each paw was recorded, with a maximum time of 20 s.
Data Analyses: Behavioral data were analyzed using a two-way mixed factorial analysis of variance (ANOVA) for each paw, with drug treatment as the between subjects measure, and time as the within subjects measure. Follow-up comparisons were made using the Bonferroni test. All animals were included in the analyses. Differences between groups were considered statistically significant at p<0.05.

[4] = test system: endogenous levels of FAAH substrates AEA, PEA, OEA and of 2-AG, AA; assay: In vivo pharmacodynamic studies: brain and liver lipid levels after inhibitor treatment (LC-MS); set-up: species or system mouse (C57BL/6J)
Procedure: This includes monitoring the effects of the inhibitors on the endogenous levels of the FAAH substrates anandamide (AEA, N-arachidonoyl ethanolamine), N-oleoyl ethanolamine (OEA), and N-palmitoyl ethanolamine (PEA), as well as the key lipids 2-arachidonoylglycerol (2-AG) and arachidonic acid (AA) that are not endogenous substrates for FAAH.
Inhibitors were prepared as a saline-emulphor emulsion for intraperitoneal (i.p.) administration by vortexing, sonicating, and gently heating neat compound directly into an 18:1:1 v/v/v solution of saline:ethanol:emulphor, or as a homogeneous PEG solution for oral administration (p.o.) by vortexing, sonicating, and gently heating neat compound directly into PEG300 (Fluka). Male C57BL/6J mice (<6 months old, 20-28 g) were administered inhibitors in saline-emulphor emulsion or an 18:1:1 v/v/v saline:emulphor:ethanol vehicle i.p. at a volume of 10 μL/g weight, or alternatively inhibitors in PEG300 or a PEG300 vehicle p.o. at a volume of 4 μL/g weight. After the indicated amount of time, mice were anesthetized with isofluorane and killed by decapitation. Total brains (˜400 mg) and a portion of the liver (˜100 mg) were removed and flash frozen in liquid N2.
Tissue was weighed and subsequently Dounce homogenized in 2:1:1 v/v/v CHCl3:MeOH:Tris pH 8.0 (8 mL) containing standards for lipids (50 pmol d4-PEA, 2 pmol d4-AEA, 0.5 nmol ds-2-AG, and 10 nmol pentadecanoic acid). The mixture was vortexed and then centrifuged (1,400×g, 10 min). The organic layer was removed, dried under a stream of N2, resolubilized in 2:1 v/v CHCl3:MeOH (120 μL), and 10 μL of this resolubilized lipid was injected onto an Agilent G6410B QQQ instrument. […] Mobile phase A was composed of a 95:5 v/v H2O:MeOH, and mobile phase B was composed of a 65:35:5 v/v/v i-PrOH:MeOH:H2O. 0.1% Formic acid or 0.1% ammonium hydroxide was included to assist in ion formation in positive and negative ionization mode, respectively. The flow rate for each run started at 0.1 mL/min with 0% B. At 5 min, the solvent was immediately changed to 60% B with a flow rate of 0.4 mL/min and increased linearly to 100% B over 10 min. […] MS analysis was performed with an electrospray ionization (ESI) source. […] For negative polarity, the analysis was performed in MS2 scan mode from 100-1000 m/z. The capillary was set to 4 kV, the fragmentor was set to 100 V, and the delta EMV was set to 0. Lipids were quantified by measuring the area under the peak in comparison to the standards.

[5] = 50 mg/kg p.o., time course up to 9 h
[6] = Table 6, 30 mg/kg i.p., 1 h, single mouse
[7] = Table 7, i.p. (30 mg/kg), 3 mice per group
[8] = Table 7, oral (50 mg/kg), 3 mice per group

O=C(c1ncc(-c2ccccn2)o1)C1CCc2cc(Oc3ccccc3)ccc2C1 (centres unmarked) [Compound 12, (6-Phenoxy-1,2,3,4-tetrahydronaphthalen-2-yl)(5-(pyridin-2-yl)oxazol-2-yl)methanone]
pKi (human FAAH (hFAAH); Table 5, active (S)-enantiomers): 8.24 | reduction in activity against the human enzyme versus rat FAAH (human FAAH (hFAAH); hFAAH vs rFAAH, active (S)-enantiomers): no significant distinction | mode of inhibition (Lineweaver-Burk analysis) [1]: reversible, competitive inhibitor; also recorded: competitive, reversible inhibition | pKi ([1]; Ki, rFAAH, Table 5, active (S)-enantiomers): 8.36 | cannabimimetic side effects [2]: did not produce catalepsy, hypothermia, or hypomotility | duration of effect on cold allodynia [3]: > 9 h | duration of effect on mechanical allodynia [3]: > 6 h | mechanical or cold allodynia in control (contralateral) paws [3]: no effect | duration of attenuation of neuropathic pain ([3]; FIG. 9 legend): up to 9 hours | duration of elevation of brain N-acylethanolamines (AEA, PEA, OEA) [4, 5]: maintained over the 9 h time course | time of peak brain levels of anandamide [4, 5]: 1.5 to 3 h | Brain 2-AG [4, 6]: 13 pmol/g | Brain AA [4, 6]: 170 pmol/g | Brain AEA [4, 6]: 42 pmol/g | Brain PEA [4, 6]: 785 pmol/g | Liver 2-AG [4, 6]: 0.25 pmol/g | Liver AEA [4, 6]: 12 pmol/g | Liver PEA [4, 6]: 472 pmol/g | Brain 2-AG [4, 7]: 7.0 pmol/g | Brain AEA [4, 7]: 28.6 pmol/g | Brain PEA [4, 7]: 599 pmol/g | Brain 2-AG [4, 8]: 11.5 pmol/g | Brain AEA [4, 8]: 43.2 pmol/g | Brain PEA [4, 8]: 772 pmol/g | increases in brain levels of N-palmitoyl ethanolamine and N-oleoyl ethanolamine ([4]; p.o. 10, 25 and 50 mg/kg, 1 h): 5.5-7.8 fold | increase in brain levels of anandamide ([4]; p.o. 25-50 mg/kg, 1 h): 12-13 fold
